Experimental data published in patent publication US6602888B2, “Use of α1C specific compounds to treat benign prostatic hyperplasia” (Synaptic Pharmaceutical Corporation, priority 1992, dated 2003).
Like-named read-outs stand apart in the source and are kept apart here.

Legend:
[1] = target: T1, human histamine H1 receptor (Homo sapiens, UniProt P35367); assay: [3H]mepyramine binding, histamine H1 receptor; details: for Ki: read-out: Histamine H1 (pK1) (converted)
T1 construct: host or cells: COS-7, transient, DEAE-dextran
T1 sequence (P35367 whole entry): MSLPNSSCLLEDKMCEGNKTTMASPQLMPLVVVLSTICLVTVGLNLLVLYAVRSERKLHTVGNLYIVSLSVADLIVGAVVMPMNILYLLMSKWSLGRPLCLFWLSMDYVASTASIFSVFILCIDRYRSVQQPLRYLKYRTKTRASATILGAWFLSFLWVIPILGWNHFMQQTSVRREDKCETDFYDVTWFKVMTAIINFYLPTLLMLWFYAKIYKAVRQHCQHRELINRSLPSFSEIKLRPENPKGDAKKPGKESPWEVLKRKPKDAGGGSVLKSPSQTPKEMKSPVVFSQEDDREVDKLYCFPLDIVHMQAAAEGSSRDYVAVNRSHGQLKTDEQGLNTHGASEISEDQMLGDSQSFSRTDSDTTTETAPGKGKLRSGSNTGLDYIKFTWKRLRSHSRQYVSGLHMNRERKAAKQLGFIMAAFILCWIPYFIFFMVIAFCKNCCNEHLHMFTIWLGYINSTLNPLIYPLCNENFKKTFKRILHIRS
Excerpt: The coding sequence of the human histamine H1 receptor, homologous to the bovine H1 receptor, was obtained from a human hippocampal cDNA library, and was cloned into the eukaryotic expression vector pCEXV-3. The plasmid DNA for the H1 receptor is designated pcEXV-H1, and was deposited on Nov. […] This construct was transfected into COS-7 cells by the DEAE-dextran method.

[2] = target: T2, human α2B adrenergic receptor (Homo sapiens, UniProt P18089); assay: Competition binding, [3H]rauwolscine, α2B receptor; details: for Ki: read-out: Alpha-2 Adrenergic a2b (pK1) (converted)
T2 sequence (P18089 1-450): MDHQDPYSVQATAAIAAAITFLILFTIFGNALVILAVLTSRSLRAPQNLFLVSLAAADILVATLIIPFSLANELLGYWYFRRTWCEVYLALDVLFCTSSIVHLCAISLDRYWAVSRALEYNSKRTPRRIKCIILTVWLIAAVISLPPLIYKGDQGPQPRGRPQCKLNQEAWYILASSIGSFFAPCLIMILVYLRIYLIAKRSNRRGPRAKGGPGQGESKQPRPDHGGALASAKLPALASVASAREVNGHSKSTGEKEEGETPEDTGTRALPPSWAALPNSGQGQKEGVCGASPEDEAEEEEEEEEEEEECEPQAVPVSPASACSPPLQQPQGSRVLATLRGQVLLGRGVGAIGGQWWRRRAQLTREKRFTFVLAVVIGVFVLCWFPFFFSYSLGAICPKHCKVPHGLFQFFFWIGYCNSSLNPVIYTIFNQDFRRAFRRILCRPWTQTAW
Method: (§1) To determine the potency of α1 antagonists at the α2 receptors, LM(tk−) cell lines stably transfected with the genes encoding the α2A, α2B, and α2C receptors were used. The cell line expressing the α2A receptor is designated L-α2A, and was deposited on Nov. […] The cell line expressing the α2B receptor is designated L-NGC-α2B, and was deposited on Oct. […] The cell line expressing the α2C receptor is designated L-α2C, and was deposited on Nov. […] Cell lysates were prepared as described above (see Radioligand Binding Assays), and suspended in 25 mM glycylglycine buffer (pH 7.6 at room temperature).

[3] = target: T3, human α2C adrenergic receptor (Homo sapiens, UniProt P18825); assay: Competition binding, [3H]rauwolscine, α2C receptor; details: for Ki: read-out: Alpha-2 Adrenergic a2c (pK1) (converted)
T3 sequence (P18825 1-462): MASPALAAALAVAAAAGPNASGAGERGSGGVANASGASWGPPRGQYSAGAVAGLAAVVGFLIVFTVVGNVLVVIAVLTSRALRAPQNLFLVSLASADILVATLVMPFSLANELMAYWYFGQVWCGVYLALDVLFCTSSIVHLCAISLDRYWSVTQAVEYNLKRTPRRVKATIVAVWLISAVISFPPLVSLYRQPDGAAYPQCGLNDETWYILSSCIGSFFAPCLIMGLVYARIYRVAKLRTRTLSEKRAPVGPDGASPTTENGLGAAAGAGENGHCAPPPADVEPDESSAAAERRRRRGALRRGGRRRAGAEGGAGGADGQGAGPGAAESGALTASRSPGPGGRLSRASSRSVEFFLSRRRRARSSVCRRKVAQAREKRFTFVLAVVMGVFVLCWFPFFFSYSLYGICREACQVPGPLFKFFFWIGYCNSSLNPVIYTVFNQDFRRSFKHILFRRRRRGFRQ
Method: as §1

[4] = target: T4, human histamine H2 receptor (Homo sapiens, UniProt P25021); assay: [3H]tiotidine binding, histamine H2 receptor; details: for Ki: read-out: Histamine H2 (pK1) (converted)
T4 construct: host or cells: COS-7, transient, DEAE-dextran
T4 sequence (P25021 whole entry): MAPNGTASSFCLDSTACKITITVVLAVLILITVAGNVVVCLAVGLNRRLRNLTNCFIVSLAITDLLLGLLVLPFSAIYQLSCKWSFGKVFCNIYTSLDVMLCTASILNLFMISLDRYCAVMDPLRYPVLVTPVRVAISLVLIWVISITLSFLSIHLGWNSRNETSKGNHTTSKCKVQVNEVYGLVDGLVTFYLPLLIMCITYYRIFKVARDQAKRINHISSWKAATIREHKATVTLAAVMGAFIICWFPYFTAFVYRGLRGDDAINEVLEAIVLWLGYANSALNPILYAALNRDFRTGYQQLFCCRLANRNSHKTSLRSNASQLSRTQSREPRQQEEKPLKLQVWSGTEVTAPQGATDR
Excerpt: The coding sequence of the human H2 receptor was obtained from a human placenta genomic library, and cloned into the cloning site of PCEXV-3 eukaryotic expression vector. The plasmid DNA for the H2 receptor is designated pcEXV-H2, and was deposited on Nov. […] This construct was transfected into COS-7 cells by the DEAE-dextran method.

human 5HT1Dβ receptor = target: T5, human 5HT1Dβ receptor (Homo sapiens, UniProt P28222); assay: [3H]serotonin competition binding, 5HT1Dβ receptor
T5 construct: host or cells: LM(tk-) clonal cell line Ltk-11
T5 sequence (P28222 whole entry): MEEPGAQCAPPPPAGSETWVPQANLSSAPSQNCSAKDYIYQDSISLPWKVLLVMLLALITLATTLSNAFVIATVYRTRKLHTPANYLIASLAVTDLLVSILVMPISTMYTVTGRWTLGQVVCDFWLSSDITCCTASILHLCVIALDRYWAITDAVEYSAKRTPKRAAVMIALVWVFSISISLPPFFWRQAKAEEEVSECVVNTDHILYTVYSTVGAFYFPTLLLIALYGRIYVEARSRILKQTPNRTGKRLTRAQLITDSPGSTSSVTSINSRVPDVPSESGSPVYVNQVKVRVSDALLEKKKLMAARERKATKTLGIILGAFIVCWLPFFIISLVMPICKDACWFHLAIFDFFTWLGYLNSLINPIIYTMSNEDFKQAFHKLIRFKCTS
Method: (§2) 5HT1Dα, 5HT1Dβ, 5HT1E, 5HT1F Receptors: The cell lysates of LM(tk−) clonal cell line stably transfected with the genes encoding each of these 5HT receptor-subtypes were prepared as described above. The cell line for the 5HT1Dα receptor, designated as Ltk-8-30-84, was deposited on Apr. […] The cell for the 5HT1Dβ receptor, designated as Ltk-11, was deposited on Apr. […] The cell line for the 5HT1E receptor, designated 5 HT1E-7, was deposited on Nov. […] The cell line for the 5HT1F receptor, designated L-5-HT1F, was deposited on Dec. […] These preparations were suspended in 50 mM Tris-HCl buffer (pH 7.4 at 37° C.) containing 10 mM MgCl2, 0.2 mM EDTA, 10 μM pargyline, and 0.1% ascorbate.

human prostate tissue = assay: Antagonism of phenylephrine-induced contraction of human prostatic tissue; details: pA2, phenylephrine-induced contraction, dose-ratio method
Method: An index of this efficacy can be obtained by determining the potency of α1 antagonists to antagonize the contraction of human prostatic tissue induced by an α1 agonist “in vitro”.
Prostatic adenomas were obtained at the time of surgery from patients with symptomatic BPH. […] Isometric tension was measured with a Grass Instrument FT03 force transducer interfaced with a computer. Tissue strips were contracted with varying concentrations of phenylephrine after incubating for 20 minutes in the absence and presence of at least three different concentrations of antagonist. Dose-response curves for phenylephrine were constructed, and the antagonist potency (pA2) was estimated by the dose-ratio method.

human 5HT1F receptor = target: T6, human 5HT1F receptor (Homo sapiens, UniProt P30939); assay: [3H]serotonin competition binding, 5HT1F receptor
T6 construct: host or cells: LM(tk-) clonal cell line L-5-HT1F
T6 sequence (P30939 1-366): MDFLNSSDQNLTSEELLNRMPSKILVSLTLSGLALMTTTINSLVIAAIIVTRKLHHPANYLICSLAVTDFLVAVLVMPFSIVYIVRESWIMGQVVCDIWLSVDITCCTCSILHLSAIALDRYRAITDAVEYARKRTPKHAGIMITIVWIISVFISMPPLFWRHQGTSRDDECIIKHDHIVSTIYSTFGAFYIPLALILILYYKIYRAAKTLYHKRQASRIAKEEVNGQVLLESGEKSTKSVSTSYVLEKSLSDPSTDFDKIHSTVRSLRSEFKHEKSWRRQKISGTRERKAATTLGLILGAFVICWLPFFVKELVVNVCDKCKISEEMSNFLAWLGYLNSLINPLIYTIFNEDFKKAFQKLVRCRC
Method: as §2

human 5HT1Dα receptor = target: T7, human 5HT1Dα receptor (Homo sapiens, UniProt P28221); assay: [3H]serotonin competition binding, 5HT1Dα receptor
T7 construct: host or cells: LM(tk-) clonal cell line Ltk-8-30-84
T7 sequence (P28221 whole entry): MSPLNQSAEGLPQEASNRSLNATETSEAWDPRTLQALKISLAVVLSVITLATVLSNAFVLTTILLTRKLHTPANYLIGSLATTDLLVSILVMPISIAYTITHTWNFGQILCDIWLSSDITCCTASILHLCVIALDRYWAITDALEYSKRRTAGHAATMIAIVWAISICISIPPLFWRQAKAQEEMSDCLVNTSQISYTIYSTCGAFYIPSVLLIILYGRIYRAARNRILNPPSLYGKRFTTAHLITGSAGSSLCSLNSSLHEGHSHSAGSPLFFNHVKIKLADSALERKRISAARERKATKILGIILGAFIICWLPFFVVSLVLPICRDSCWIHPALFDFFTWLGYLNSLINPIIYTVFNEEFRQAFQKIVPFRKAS
Method: as §2

[5] = Table 2, cloned human receptor, read-out: Serotonin 5HT1Db (pK1)
[6] = Table 2, cloned human receptor, read-out: Serotonin 5HT1F (pK1)
[7] = Table 2, cloned human receptor, read-out: Serotonin 5HT1Da (pK1)

| Molecule | Ki ([1]; Table 2, cloned human receptor) | Ki ([2]; Table 2, cloned human receptor) | Ki ([3]; Table 2, cloned human receptor) | Ki ([4]; Table 2, cloned human receptor) | Human Prostate (pA) (human prostate tissue) | Histamine H1 (pK1) ([1]; Table 2, cloned human receptor) | Alpha-2 Adrenergic a2b (pK1) ([2]; Table 2, cloned human receptor) | Alpha-2 Adrenergic a2c (pK1) ([3]; Table 2, cloned human receptor) | Histamine H2 (pK1) ([4]; Table 2, cloned human receptor) | Serotonin 5HT1Db (pK1) (human 5HT1Dβ receptor; Table 2, cloned human receptor) | Serotonin 5HT1Da (pK1) (human 5HT1Dα receptor; Table 2, cloned human receptor) | Serotonin 5HT1F (pK1) (human 5HT1F receptor; Table 2, cloned human receptor) | also measured |
| --- | --- | --- | --- | --- | --- | --- | --- | --- | --- | --- | --- | --- | --- |
| C=Cc1sc2ccc(Cl)c3c2c1CN(C)CC3 [SKF-104856, 7-Chloro-2-ethenyl-3,4,5,6-tetrahydro-4-methylthieno[4,3,2-ef][3]benzazepine, reference compound] | 2.57 µM | 0.00324 µM | 0.0251 µM | 1.45 µM | 7.66 | – | – | – | – | – | – | – | Ki (human 5HT1Dβ receptor; [5]): > 0.1 µM; Ki (human 5HT1F receptor; [6]): > 0.1 µM; Ki (human 5HT1Dα receptor; [7]): > 0.1 µM |
| O=C(NC1CCN(CCc2c[nH]c3ccccc23)CC1)c1ccccc1 [Indoramin, reference compound] | 0.0427 µM | 1.91 µM | 6.03 µM | 2.34 µM | 7.86 | – | – | – | – | – | – | – | Ki (human 5HT1Dβ receptor; [5]): > 1 µM; Ki (human 5HT1F receptor; [6]): > 10 µM; Ki (human 5HT1Dα receptor; [7]): > 1 µM |
| COc1ccccc1N1CCN(CCCNc2c(C)c(=O)n(C)c(=O)n2C)CC1 [5-Methyl-Urapidil, 5-methylurapidil, reference compound] | – | – | – | – | 8.38 | 5.16 | 7.38 | 6.88 | 4.47 | 6.82 | 7.30 | – | – |
| O=C(CCCN1CCC(NC(=O)c2ccccc2)CC1)c1ccccc1 [Compound 9] | – | – | – | – | 7.41 | 7.29 | 5.69 | 5.90 | 5.44 | <6.0 | <6.0 | <5.0 | – |
| O=C(CCCN1CCC(NC(=O)c2ccccc2)CC1)c1ccc(Cl)cc1 [Compound 7] | – | – | – | – | 7.63 | 7.59 | 6.07 | 6.09 | 6.02 | <5.0 | <6.0 | <5.0 | – |
| COC(=O)C1=C(C)NC(C)=C(C(=O)OCCCN2CCC(c3ccccc3)(c3ccccc3)CC2)C1c1ccc([N+](=O)[O-])cc1.Cl (stereo not shown) [Compound 8, 2,6-Dimethyl-4-(4-nitrophenyl)-1,4-dihydropyridine-3,5-dicarboxylic acid [3-(4,4-diphenylpiperidin-1-yl)propyl] ester methyl ester hydrochloride] | 0.214 µM | – | – | 0.776 µM | 7.46 | – | 6.12 | 5.77 | – | – | – | – | Ki (human 5HT1Dβ receptor): > 10 µM; Ki (human 5HT1F receptor): > 10 µM; Ki (human 5HT1Dα receptor): > 1 µM |
| 4-fluoro-4-(8-fluoro-1,3,4,5-tetrahydro-2H-pyrido[4,3-b]indol-2-yl)butyrophenone hydrochloride [Compound A-30360, reference compound] | – | – | – | – | 8.72 | – | – | – | – | <6.0 | <6.0 | <5.0 | Histamine H1 (pK1) [1]: 6.03; Alpha-2 Adrenergic a2b (pK1) [2]: 6.37; Alpha-2 Adrenergic a2c (pK1) [3]: 6.23; Histamine H2 (pK1) [4]: 5.77 |
| COc1ccc(CCNCC2CCc3ccccc3C2)cc1 (stereo not shown) [Compound 11, 2-[(4-Methoxyphenethyl)aminomethyl]-1,2,3,4-tetrahydronaphthalene] | 1.82 µM | 0.126 µM | 0.12 µM | 0.0355 µM | 6.64 | – | – | – | – | – | – | – | Ki (human 5HT1Dβ receptor): > 1 µM; Human Prostate (pA) (human prostate tissue; listed as SNAP 5036): low; Ki (human 5HT1F receptor): > 10 µM; Ki (human 5HT1Dα receptor): > 1 µM |
